Structures are written as SMILES. Where a name gives a salt, the structure may show the parent alone.

Here are results for 29 compounds from patent publication US10703765B2 (priority 2014, dated 2020).

For one experiment, the target named is human σ1 receptor (Homo sapiens, UniProt Q99720). Briefly: biochemical. In kind it is binding. More on the design: μ and σ1 dual binding: key to the marks not given beside the values.
human σ1 receptor, sequence (Q99720 whole entry): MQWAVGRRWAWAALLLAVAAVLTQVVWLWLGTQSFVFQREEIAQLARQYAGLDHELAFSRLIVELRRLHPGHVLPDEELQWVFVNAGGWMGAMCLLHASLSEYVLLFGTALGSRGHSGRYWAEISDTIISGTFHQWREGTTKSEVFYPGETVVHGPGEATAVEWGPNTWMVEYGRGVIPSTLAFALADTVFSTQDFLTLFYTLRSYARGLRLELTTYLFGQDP
Settings: not given
In turn, `CC1OC2(CCN(CC(O)c3ccccc3)CC2)CN(c2ccccc2)C1=O` (mixture of isomers) [Example 150, 9-(2-hydroxy-2-phenylethyl)-2-methyl-4-phenyl-1-oxa-4,9-diazaspiro[5.5]undecan-3-one] displayed a Ki of more than 500 nM.

As for `COc1ccc(N2CC3(CCN(CCc4ccccc4)CC3)OC(C)C2=O)cc1.Cl` (centres unmarked) [Example 1, 4-(4-methoxyphenyl)-2-methyl-9-phenethyl-1-oxa-4,9-diazaspiro[5.5]undecan-3-one hydrochloride], the “μ and σ1 dual binding” value is reported as “++”.

`Cl.O=C1COC2(CCN(Cc3ccccc3)CC2)CN1c1ccccc1` [Example 3, 9-benzyl-4-phenyl-1-oxa-4,9-diazaspiro[5.5]undecan-3-one hydrochloride]: the “μ and σ1 dual binding” value was “++”.

Turning to `CC1OC2(CCN(Cc3ccccc3)CC2)CN(c2ccccc2)C1=O.Cl` (centres unmarked) [Example 16, 9-benzyl-2-methyl-4-phenyl-1-oxa-4,9-diazaspiro[5.5]undecan-3-one hydrochloride], the “μ and σ1 dual binding” value is recorded as “++”.

As for `CC1OC2(CCN(CCc3ccccc3)CC2)CN(c2ccn(C)n2)C1=O.Cl` (centres unmarked) [Example 20, 2-methyl-4-(1-methyl-1H-pyrazol-3-yl)-9-phenethyl-1-oxa-4,9-diazaspiro[5.5]undecan-3-one hydrochloride], the “μ and σ1 dual binding” value is reported as “++”.

The experiment is the same for the next values; noted with them: combined class from Ki-σ1 (human σ1 receptor, A1) and Ki-μ (human μ-opioid receptor, A2) radioligand binding.
Consider `COc1ccccc1N1CC2(CCN(Cc3ccccc3)CC2)OCC1=O` [Example 2, 9-benzyl-4-(2-methoxyphenyl)-1-oxa-4,9-diazaspiro[5.5]undecan-3-one], for which the “μ and σ1 dual binding” value is recorded as “++”.

Turning to `COc1ccccc1N1CC2(CCN(CCc3ccccc3)CC2)OCC1=O` [Example 4, 4-(2-methoxyphenyl)-9-phenethyl-1-oxa-4,9-diazaspiro[5.5]undecan-3-one], the “μ and σ1 dual binding” value was “++”.

Regarding `COc1cccc(N2CC3(CCN(Cc4ccccc4)CC3)OCC2=O)c1` [Example 6, 9-benzyl-4-(3-methoxyphenyl)-1-oxa-4,9-diazaspiro[5.5]undecan-3-one], the “μ and σ1 dual binding” value is on record as “++”.

For `O=C1COC2(CCN(Cc3ccccc3)C2)CN1c1ccccc1` (centres unmarked) [Example 7, 2-benzyl-9-phenyl-6-oxa-2,9-diazaspiro[4.5]decan-8-one], the “μ and σ1 dual binding” value is recorded as “++”.

With `COc1cccc(N2CC3(CCN(CCc4ccccc4)CC3)OCC2=O)c1` [Example 8, 4-(3-methoxyphenyl)-9-phenethyl-1-oxa-4,9-diazaspiro[5.5]undecan-3-one], the “μ and σ1 dual binding” value is recorded as “++”.

The same experiment, now with this note: read-out: μ and σ1 dual binding.
As for `O=C1COC2(CCN(CCc3ccccc3)CC2)CN1c1ccccc1` [Example 5, 9-phenethyl-4-phenyl-1-oxa-4,9-diazaspiro[5.5]undecan-3-one], the Ki was less than 500 nM.

With `CC1OC2(CCN(CCc3ccccc3)CC2)CN(c2ccccc2)C1=O` (centres unmarked) [Example 9, 2-methyl-9-phenethyl-4-phenyl-1-oxa-4,9-diazaspiro[5.5]undecan-3-one], the Ki was less than 100 nM.

For `C[C@H]1OC2(CCN(CCc3ccccc3)CC2)CN(c2ccccc2)C1=O` [Example 10a, (R)-2-methyl-9-phenethyl-4-phenyl-1-oxa-4,9-diazaspiro[5.5]undecan-3-one], the Ki was less than 100 nM.

As for `C[C@@H]1OC2(CCN(CCc3ccccc3)CC2)CN(c2ccccc2)C1=O` [Example 10b, (S)-2-methyl-9-phenethyl-4-phenyl-1-oxa-4,9-diazaspiro[5.5]undecan-3-one], the Ki was less than 100 nM.

On to `COCC1OC2(CCN(CCc3ccccc3)CC2)CN(c2ccccc2)C1=O` (centres unmarked) [Example 11, 2-(methoxymethyl)-9-phenethyl-4-phenyl-1-oxa-4,9-diazaspiro[5.5]undecan-3-one], for which the Ki is less than 100 nM.

As for `COC[C@@H]1OC2(CCN(CCc3ccccc3)CC2)CN(c2ccccc2)C1=O` [Example 12a, (S)-2-(methoxymethyl)-9-phenethyl-4-phenyl-1-oxa-4,9-diazaspiro[5.5]undecan-3-one], the Ki was less than 500 nM.

For the compound `COC[C@H]1OC2(CCN(CCc3ccccc3)CC2)CN(c2ccccc2)C1=O` [Example 12b, (R)-2-(methoxymethyl)-9-phenethyl-4-phenyl-1-oxa-4,9-diazaspiro[5.5]undecan-3-one], the Ki was less than 100 nM.

Consider `CCC1OC2(CCN(CCc3ccccc3)CC2)CN(c2ccccc2)C1=O` (centres unmarked) [Example 13, 2-ethyl-9-phenethyl-4-phenyl-1-oxa-4,9-diazaspiro[5.5]undecan-3-one], for which the Ki is less than 100 nM.

In the case of `COC(=O)CC1OC2(CCN(CCc3ccccc3)CC2)CN(c2ccccc2)C1=O` (centres unmarked) [Example 14, methyl 2-(3-oxo-9-phenethyl-4-phenyl-1-oxa-4,9-diazaspiro[5.5]undecan-2-yl)acetate hydrochloride], the Ki is less than 100 nM.

`COc1cccc(N2CC3(CCN(CCc4ccccc4)CC3)OC(C)C2=O)c1` (centres unmarked) [Example 15, 4-(3-methoxyphenyl)-2-methyl-9-phenethyl-1-oxa-4,9-diazaspiro[5.5]undecan-3-one hydrochloride]: the Ki is less than 500 nM.

`CC(C)C1OC2(CCN(CCc3ccccc3)CC2)CN(c2ccccc2)C1=O` (centres unmarked) [Example 17, 2-isopropyl-9-phenethyl-4-phenyl-1-oxa-4,9-diazaspiro[5.5]undecan-3-one hydrochloride]: the Ki was less than 100 nM.

Turning to `CC1(C)OC2(CCN(CCc3ccccc3)CC2)CN(c2ccccc2)C1=O` [Example 18, 2,2-dimethyl-9-phenethyl-4-phenyl-1-oxa-4,9-diazaspiro[5.5]undecan-3-one], the Ki is less than 100 nM.

In the case of `O=C1C(COCc2ccccc2)OC2(CCN(CCc3ccccc3)CC2)CN1c1ccccc1` (centres unmarked) [Example 19, 2-((benzyloxy)methyl)-9-phenethyl-4-phenyl-1-oxa-4,9-diazaspiro[5.5]undecan-3-one hydrochloride], the Ki was less than 100 nM.

For `C=C1OC2(CCN(CCc3ccccc3)CC2)CN(c2ccccc2)C1=O` [Example 21, 2-methylene-9-phenethyl-4-phenyl-1-oxa-4,9-diazaspiro[5.5]undecan-3-one], the Ki is more than 500 nM.

Take `C=C1OC2(CCN(CCc3ccccc3)CC2)CN(c2ccccc2F)C1=O` [Example 22, 4-(2-fluorophenyl)-2-methylene-9-phenethyl-1-oxa-4,9-diazaspiro[5.5]undecan-3-one]: the Ki was more than 500 nM.

For the compound `CC1OC2(CCN(CCc3ccc([N+](=O)[O-])cn3)CC2)CN(c2ccccc2)C1=O` (centres unmarked) [Example 23, 2-methyl-9-(2-(5-nitropyridin-2-yl)ethyl)-4-phenyl-1-oxa-4,9-diazaspiro[5.5]undecan-3-one], the Ki is more than 500 nM.

As for `CC1OC2(CCN(CCc3ccc([N+](=O)[O-])cn3)CC2)CN(c2ccccc2F)C1=O` (centres unmarked) [Example 24, 4-(2-fluorophenyl)-2-methyl-9-(2-(5-nitropyridin-2-yl)ethyl)-1-oxa-4,9-diazaspiro[5.5]undecan-3-one], the Ki was more than 500 nM.

In the case of `CC1OC2(CCN(CCc3ncccc3[N+](=O)[O-])CC2)CN(c2ccccc2F)C1=O` (centres unmarked) [Example 25, 4-(2-fluorophenyl)-2-methyl-9-(2-(3-nitropyridin-2-yl)ethyl)-1-oxa-4,9-diazaspiro[5.5]undecan-3-one], the Ki is more than 500 nM.

For the compound `CC1OC2(CCN(CCc3ncccn3)CC2)CN(c2ccccc2)C1=O` (centres unmarked) [Example 26, 2-methyl-4-phenyl-9-(2-(pyrimidin-2-yl)ethyl)-1-oxa-4,9-diazaspiro[5.5]undecan-3-one hydrochloride], the Ki is more than 500 nM.
